Test results as given in patent US20110306778A1, “CRYSTAL OF SPIROKETAL DERIVATIVES AND PROCESS FOR PREPARATION OF SPIROKETAL DERIVATIVES” (priority 2008, published 2011).

Assays:
[1] = Storage stability test (total amount of impurities by HPLC after storage in thermostatic chambers); type: physicochemical; conditions: for Course of the total amounts of impurities during storage: both at 25° C. and 40° C.
Experimental: A storage stability test was carried out for monohydrate crystal and an amorphous form of the compound of Formula (XI). The monohydrate crystal of the compound of Formula (XI) was prepared according to the procedure of Example 1, Step 7. The amorphous form of the compound of Formula (XI) was obtained by the following procedure. The monohydrate crystal of the compound (15 g) was melted by heating on hot-stage, and allowed to be cooled to room temperature in a humidity-controlled desiccator (25° C./dry). The resulting solid was grinded in mortar to give a sample used as an amorphous form. The samples were stored in thermostatic chambers at 25° C. or 40° C., and the purity each of the samples was observed after 1 month, 3 months and 6 months.
The purity was determined in the following procedure. A portion each of the samples was weighed precisely (ca. 6 mg) and dissolved in a mixture of water and methanol (1:1) to be 10 mL accurately. The resulting solutions were used as sample solutions, and a portion (10 μL) each of the sample solutions was subjected to HPLC analysis. A total amount of impurities were calculated according to the following formula.
Measurement Condition of HPLC
Device: 2695 Separations Module (manufactured by Waters), 2487 Dual k Absorbance Detector (manufactured by Waters) or 996 Photodiode Array Detector (manufactured by Waters)
Column: YMC-Pack ODS-AM AM-302-3, 4.6 mm I.D.×15 cm, particle size 3 μm (manufactured by YMC)
Mobile phase: Eluent A=methanol, Eluent B=water
Gradient operation: Eluent A: 55% (15 min), Eluent A: 55% to 100% (10 min), 100% (5 min)
Detection wavelength: 220 nm
Sample cooler temperature: 5° C.
Period for measuring peak area: 30 minutes after injection
(§1) A storage stability test was carried out for co-crystal of the compound of Formula (XI) with sodium acetate according to the procedure of Test Example 2. The co-crystal of the compound of Formula (XI) with sodium acetate was prepared according to the procedure of Example 5. The samples were stored in thermostatic chambers at 25° C. or 40° C., and the purity each of the samples was observed after 1 month and 3 months. The measurement results were compared with those for the amorphous form obtained in Test Example 2.
as §1, with “potassium” for “sodium”, “6.” for “5.”

SGLT2 = target: T1, SGLT2 (Homo sapiens, UniProt P31639); conditions: statement of Patent Document 1 (WO 2006/080421 A1); cited from earlier work
T1 sequence (P31639 1-672): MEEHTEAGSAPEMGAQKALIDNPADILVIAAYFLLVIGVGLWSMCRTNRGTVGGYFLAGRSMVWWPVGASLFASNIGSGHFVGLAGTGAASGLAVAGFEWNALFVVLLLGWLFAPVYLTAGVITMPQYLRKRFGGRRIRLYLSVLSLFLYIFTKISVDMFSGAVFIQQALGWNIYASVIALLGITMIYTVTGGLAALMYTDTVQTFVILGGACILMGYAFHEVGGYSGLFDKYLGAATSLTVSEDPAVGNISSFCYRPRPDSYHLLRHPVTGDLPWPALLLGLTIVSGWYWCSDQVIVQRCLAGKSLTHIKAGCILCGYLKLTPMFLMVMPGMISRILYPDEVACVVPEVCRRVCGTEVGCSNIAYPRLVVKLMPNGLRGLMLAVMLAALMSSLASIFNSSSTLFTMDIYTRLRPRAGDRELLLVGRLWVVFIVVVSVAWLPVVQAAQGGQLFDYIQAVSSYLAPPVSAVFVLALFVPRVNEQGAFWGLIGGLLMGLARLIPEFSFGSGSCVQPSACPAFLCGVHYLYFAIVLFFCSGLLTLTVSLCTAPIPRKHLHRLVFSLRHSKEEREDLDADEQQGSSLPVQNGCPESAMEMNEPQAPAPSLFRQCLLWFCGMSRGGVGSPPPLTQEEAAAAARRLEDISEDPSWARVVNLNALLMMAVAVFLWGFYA

With `CCc1ccc(Cc2ccc3c(c2)[C@]2(OC3)O[C@H](CO)[C@@H](O)[C@H](O)[C@H]2O)cc1` [Co-crystal with potassium acetate, 1,1-anhydro-1-C-[5-(4-ethylphenyl)methyl-2-(hydroxymethyl)phenyl]-β-D-glucopyranose] the “Course of the total amounts of impurities during storage” value (“Course” below) [1] was “maintained nearly constant for 3 months”, the “Total amount of impurities (%)” value ([1]; storage at 25° C., 0 month) was 0.08% and the “Total amount of impurities (%)” value ([1]; storage at 25° C., 3 month) was 0.08%. The “Total amount of impurities (%)” value ([1]; storage at 40° C., 0 month) was 0.08%, the “Total amount of impurities (%)” value ([1]; storage at 40° C., 1 month) was 0.08% and the “Total amount of impurities (%)” value ([1]; storage at 40° C., 3 month) was 0.08%.

In the case of `CCc1ccc(Cc2ccc3c(c2)[C@]2(OC3)O[C@H](CO)[C@@H](O)[C@H](O)[C@H]2O)cc1` [Formula (B)], the “Inhibitory activity against SGLT2” value (SGLT2) is listed as “excellent inhibitory activity”.

With `CCc1ccc(Cc2ccc3c(c2)[C@]2(OC3)O[C@H](CO)[C@@H](O)[C@H](O)[C@H]2O)cc1` [Monohydrate crystal, 1,1-anhydro-1-C-[5-(4-ethylphenyl)methyl-2-(hydroxymethyl)phenyl]-β-D-glucopyranose] the “Course” value [1] was “maintained nearly constant for 6 months”, the “Total amount of impurities (%)” value ([1]; storage at 25° C., 0 month) was 0.30% and the “Total amount of impurities (%)” value ([1]; storage at 25° C., 3 month) was 0.29%. The “Total amount of impurities (%)” value ([1]; storage at 25° C., 6 month) was 0.32%, the “Total amount of impurities (%)” value ([1]; storage at 40° C., 0 month) was 0.30% and the “Total amount of impurities (%)” value ([1]; storage at 40° C., 1 month) was 0.32%. The “Total amount of impurities (%)” value ([1]; storage at 40° C., 3 month) was 0.31% and the “Total amount of impurities (%)” value ([1]; storage at 40° C., 6 month) was 0.36%.

For `CCc1ccc(Cc2ccc3c(c2)[C@]2(OC3)O[C@H](CO)[C@@H](O)[C@H](O)[C@H]2O)cc1` [Amorphous form, 1,1-anhydro-1-C-[5-(4-ethylphenyl)methyl-2-(hydroxymethyl)phenyl]-β-D-glucopyranose], the “Course” value [1] was “increased time-dependently”, the “Total amount of impurities (%)” value ([1]; storage at 25° C., 0 month) was 0.35% and the “Total amount of impurities (%)” value ([1]; storage at 25° C., 3 month) was 0.66%. The “Total amount of impurities (%)” value ([1]; storage at 25° C., 6 month) was 0.87%, the “Total amount of impurities (%)” value ([1]; storage at 40° C., 0 month) was 0.35% and the “Total amount of impurities (%)” value ([1]; storage at 40° C., 1 month) was 0.62%. For the same compound, the “Total amount of impurities (%)” value ([1]; storage at 40° C., 3 month) was 0.92% and the “Total amount of impurities (%)” value ([1]; storage at 40° C., 6 month) was 1.46%.

In the case of `CCc1ccc(Cc2ccc3c(c2)[C@]2(OC3)O[C@H](CO)[C@@H](O)[C@H](O)[C@H]2O)cc1` [Co-crystal with sodium acetate, 1,1-anhydro-1-C-[5-(4-ethylphenyl)methyl-2-(hydroxymethyl)phenyl]-β-D-glucopyranose], the “Course” value [1] is reported as “maintained nearly constant for 3 months”, the “Total amount of impurities (%)” value ([1]; storage at 25° C., 0 month) is reported as 0.07% and the “Total amount of impurities (%)” value ([1]; storage at 25° C., 3 month) is reported as 0.07%. For the same compound, the “Total amount of impurities (%)” value ([1]; storage at 40° C., 0 month) was 0.07%, the “Total amount of impurities (%)” value ([1]; storage at 40° C., 1 month) was 0.07% and the “Total amount of impurities (%)” value ([1]; storage at 40° C., 3 month) was 0.08%.
